# Measured values from US12171755B2, “PAPD5 inhibitors and methods of use thereof” (Children's Medical Center Corporation, priority 2017, dated 2024).
# Molecular target: T1, PAPD5 (Homo sapiens, UniProt Q8NDF8)
# T1 construct: made in house
# Assay: High-throughput luminescence (KinaseGlo) RNA polyadenylation assay, ATP utilization by recombinant PAPD5
# Format: biochemical
# Conditions: Table 4 (entries of Table 5), ratio of luminescence with inhibitor to DMSO; for Fold-change determined at compound concentration 33 μM: 33 μM compound; for Fold-change determined at compound concentration 100 μM: 100 μM compound, higher = higher inhibition
# Summary of the method: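 Values are ratios of inhibitor to DMSO luminescence, so larger numbers mean less ATP consumed. Screening was run in duplicate with a 2 h room-temperature reaction of recombinant PAPD5, ATP and oligo RNA substrate plus compound. Residual ATP was detected after a 10 min KinaseGlo step.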
# T1 sequence (Q8NDF8 68-698 isoform Q8NDF8-5): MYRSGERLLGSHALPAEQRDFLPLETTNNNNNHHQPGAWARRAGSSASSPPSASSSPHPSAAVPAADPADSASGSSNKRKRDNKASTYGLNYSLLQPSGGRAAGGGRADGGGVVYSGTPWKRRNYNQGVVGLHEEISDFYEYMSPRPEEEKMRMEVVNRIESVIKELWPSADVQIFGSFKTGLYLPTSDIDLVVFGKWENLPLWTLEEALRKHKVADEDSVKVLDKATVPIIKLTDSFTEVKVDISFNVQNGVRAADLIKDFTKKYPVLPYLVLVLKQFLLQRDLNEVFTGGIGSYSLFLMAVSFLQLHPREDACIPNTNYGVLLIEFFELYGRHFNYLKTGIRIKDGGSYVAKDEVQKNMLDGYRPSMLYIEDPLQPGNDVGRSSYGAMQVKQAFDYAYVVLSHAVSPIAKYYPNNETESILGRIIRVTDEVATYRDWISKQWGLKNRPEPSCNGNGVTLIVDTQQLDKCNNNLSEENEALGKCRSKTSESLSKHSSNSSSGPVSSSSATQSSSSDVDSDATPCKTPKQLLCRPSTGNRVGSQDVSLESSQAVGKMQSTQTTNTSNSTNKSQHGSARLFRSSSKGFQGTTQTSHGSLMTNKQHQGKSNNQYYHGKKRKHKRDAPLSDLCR
Compound,Fold-change determined at compound concentration 33 μM,Fold-change determined at compound concentration 100 μM,Fold-change determined at compound concentration 10 μM (10 μM compound)
"COc1ccc(-c2n[nH]c3nc(-c4cc(OC)c(OC)c(OC)c4)cc(C(=O)O)c23)cc1 [Entry 183, 3-(4-methoxyphenyl)-6-(3,4,5-trimethoxyphenyl)-1H-pyrazolo[3,4-b]pyridine-4-carboxylic acid]",1.152,1.346,
"CCOC(=O)c1ccc(NC(=O)CCc2c(C)nc3c(c(C)nn3C)c2C)cc1 [Entry 184, ethyl 4-[3-(1,3,4,6-tetramethylpyrazolo[3,4-b]pyridin-5-yl)propanoylamino]benzoate]",1.245,1.294,
"CCCCN(CCCC)CCCNC(=O)c1ccc2c(c1)sc1nc(-c3ccc(OC)cc3)cn12 [Entry 186, N-[3-(dibutylamino)propyl]-2-(4-methoxyphenyl)imidazo[2,1-b][1,3]benzothiazole-7-carboxamide]",1.163,1.531,
"Cc1ccc(-c2cn3c(n2)sc2ccc(C(=O)NCCCN4CCCCCC4)cc23)cc1 [Entry 187, N-[3-(azepan-1-yl)propyl]-2-(4-methylphenyl)imidazo[2,1-b][1,3]benzothiazole-6-carboxamide]",1.108,1.262,
"COC(=O)c1cnn2c(=O)cc(CS(=O)(=O)c3ccc(C)cc3C)[nH]c12 [Entry 188, Methyl 5-{[(2,4-dimethylphenyl)sulfonyl]methyl}-7-oxo-4,7-dihydropyrazolo[1,5-a]pyrimidine-3-carboxylate]",1.089,1.29,
"Cc1ccc(C(=O)Nc2c(-c3ccccc3)nc3ccccn23)cc1C [Entry 189, 3,4-dimethyl-N-(2-phenylimidazo[1,2-a]pyridin-3-yl)benzamide]",1.206,1.311,
"O=C(Nc1c(-c2ccccc2)nc2ccccn12)c1ccc(Br)cc1 [Entry 191, 4-bromo-N-(2-phenylimidazo[1,2-a]pyridin-3-yl)benzamide]",1.225,1.296,
"O=C(O)c1cccc(Nc2c(-c3cc(Br)ccc3O)nc3cnccn23)c1 [Entry 193, 3-{[2-(5-bromo-2-hydroxyphenyl)imidazo[1,2-a]pyrazin-3-yl]amino}benzoic acid]",1.134,1.446,
"COc1ccc(C2CC(=O)N3CN(C4CCCCC4)CSC3=C2C#N)cc1 (stereo not shown) [Entry 194, 3-cyclohexyl-8-(4-methoxyphenyl)-6-oxo-3,4,7,8-tetrahydro-2H,6H-pyrido[2,1-b][1,3,5]thiadiazine-9-carbonitrile]",1.323,1.613,
"CC(C)c1ccc(C2CC(=O)N3CN(C4CCCCC4)CSC3=C2C#N)cc1 (stereo not shown) [Entry 195, 3-cyclohexyl-6-oxo-8-(4-propan-2-ylphenyl)-2,4,7,8-tetrahydropyrido[2,1-b][1,3,5]thiadiazine-9-carbonitrile]",1.072,1.228,
"N#CC1=C2SCN(C3CCCCC3)CN2C(=O)CC1c1ccc(Br)cc1 (stereo not shown) [Entry 196, 8-(4-bromophenyl)-3-cyclohexyl-6-oxo-3,4,7,8-tetrahydro-2H,6H-pyrido[2,1-b][1,3,5]thiadiazine-9-carbonitrile]",1.09,1.326,
"COc1cc(C2CC(=O)Nc3c2sc(C(=O)O)c3-c2cccc(F)c2)ccc1OCC(N)=O (stereo not shown) [Entry 197, 7-[4-(2-amino-2-oxoethoxy)-3-methoxyphenyl]-3-(3-fluorophenyl)-5-oxo-4,5,6,7-tetrahydrothieno[3,2-b]pyridine-2-carboxylic acid]",1.142,1.412,
"CCOc1cc(C2CC(=O)Nc3c2sc(C(=O)O)c3-c2cccc(F)c2)ccc1OCC(N)=O (stereo not shown) [Entry 198, 7-[4-(2-amino-2-oxoethoxy)-3-ethoxyphenyl]-3-(3-fluorophenyl)-5-oxo-4,5,6,7-tetrahydrothieno[3,2-b]pyridine-2-carboxylic acid]",1.084,1.264,
"COC(=O)c1c(NC(=O)c2ccccc2C(=O)O)sc2c1CCCC2 [Entry 199, 2-({[3-(methoxycarbonyl)-4,5,6,7-tetrahydro-1-benzothien-2-yl]amino}carbonyl)benzoic acid]",1.199,1.607,
"CCOC(=O)c1c(NC(=O)CSc2n[nH]c3nc(=O)cc(C)n23)sc2c1CCCCC2 [Entry 200, ethyl 2-[[2-[(5-methyl-7-oxo-1H-[1,2,4]triazolo[4,3-a]pyrimidin-3-yl)sulfanyl]acetyl]amino]-5,6,7,8-tetrahydro-4H-cyclohepta[b]thiophene-3-carboxylate]",1.038,1.414,
"CCS(=O)(=O)c1nc2ccc(NS(=O)(=O)c3ccc(F)c(F)c3)cc2s1 [Entry 206, N-(2-(ethylsulfonyl)benzo[d]thiazol-6-yl)-3,4-difluorobenzenesulfonamide]",1.08,1.225,
"COc1ccc(OC)c2sc(N(CCCN(C)C)C(=O)c3ccco3)nc12 [Entry 207, N-(4,7-dimethoxy-1,3-benzothiazol-2-yl)-N-[3-(dimethylamino)propyl]furan-2-carboxamide]",1.118,1.2,
"Cc1ccc(-c2n[nH]c(=O)c3c2CCCC3)cc1S(=O)(=O)Nc1ccc(S(N)(=O)=O)cc1 [Entry 208, N-[4-(aminosulfonyl)phenyl]-2-methyl-5-(4-oxo-3,4,5,6,7,8-hexahydrophthalazin-1-yl)benzenesulfonamide]",1.211,1.492,
"O=C(O)c1csc2nc[nH]c(=O)c12 [Entry 210, 4-Oxo-3,4-dihydrothieno[2,3-d]pyrimidine-5-carboxylic acid]",1.136,1.311,
"CCOC(=O)Cn1cnc2sc3c(c2c1=O)CCCC3 [Entry 211, Ethyl (4-oxo-5,6,7,8-tetrahydro[1]benzothieno[2,3-d]pyrimidin-3(4H)-yl)acetate]",1.065,1.217,
"O=C1c2cnccc2CN1c1cc(F)ccc1F [Entry 212, 2-(2,5-difluorophenyl)-1H-pyrrolo[3,4-c]pyridin-3-one]",1.077,1.799,

# Other lines, results leading:
Fold-change determined at compound concentration 33 μM,Fold-change determined at compound concentration 100 μM,Fold-change determined at compound concentration 10 μM (10 μM compound),Compound
1.1781,1.35,,"O=C(O)c1cc(-c2ccc(C(F)(F)F)cc2)nc2n[nH]c(-c3ccccc3)c12 [Entry 182, 3-phenyl-6-[4-(trifluoromethyl)phenyl]-2H-pyrazolo[3,4-b]pyridine-4-carboxylic acid]"
1.309,1.482,1.214,"Cc1ccc(C(=O)Nc2c(-c3ccccc3)nc3ccccn23)cc1 [Entry 190, 4-methyl-N-(2-phenylimidazo[1,2-a]pyridin-3-yl)benzamide]"
1.106,1.419,,"O=C(O)c1ccc(Nc2c(-c3cc(Br)ccc3O)nc3cnccn23)cc1 [Entry 192, 4-{[2-(5-bromo-2-hydroxyphenyl)imidazo[1,2-a]pyrazin-3-yl]amino}benzoic acid]"
1.164,1.361,,"O=C(NC1CC1)c1ccc(Cn2c(SCc3ccccc3Cl)nc3ccncc32)cc1 [Entry 202, 4-({2-[(2-chlorobenzyl)thio]-3H-imidazo[4,5-c]pyridin-3-yl]methyl)-N-cyclopropylbenzamide]"
1.106,1.31,,"O=C(NCCN1CCCC1)c1ccc(Cn2c(SCc3ccc(Cl)cc3)nc3ccncc32)cc1 [Entry 203, 4-({2-[(4-chlorobenzyl)thio]-3H-imidazo[4,5-c]pyridin-3-yl}methyl)-N-(2-pyrrolidin-1-ylethyl)benzamide]"
1.073,1.229,,"Cc1nn(-c2ccc(Cl)cc2)c2sc(C(=O)O)cc12 [Entry 204, 1-(4-Chloro-phenyl)-3-methyl-1H-thieno[2,3-c]pyrazole-5-carboxylic acid]"
1.232,2.055,,"Cn1nc(-c2ccc(Cl)cc2)c2cc(C(=O)O)sc21 [Entry 205, 3-(4-chlorophenyl)-1-methylthieno[2,3-c]pyrazole-5-carboxylic acid]"
1.093,1.274,,"O=C(Cn1nc(Cc2ccncc2)c2ccccc2c1=O)N1CC=C(c2ccccc2)CC1 [Entry 209, 2-[2-oxo-2-(4-phenyl-3,6-dihydropyridin-1(2H)-yl)ethyl]-4-(pyridin-4-ylmethyl)phthalazin-1(2H)-one]"
1.199,1.579,,"Cc1ccc2c(c1)n(Cc1ccc(Cl)cc1)c(=O)c1nc(C(=O)O)nn12 [Entry 213, 5-(4-chlorobenzyl)-7-methyl-4-oxo-4,5-dihydro[1,2,4]triazolo[1,5-a]quinoxaline-2-carboxylic acid]"
